Measurements as given in ChEMBL document CHEMBL1629651, “A novel insertion mutation in Streptomyces coelicolor ribosomal S12 protein results in paromomycin resistance and antibiotic overproduction” (2009).
Values after ≈ are worked out from the molar mass of the structure shown. Active and inactive are the calls of the source. No cut-off for these calls is given here.

Experiments:
[1] = tested on: Streptomyces coelicolor; test: Antimicrobial activity against paromomycin-resistant Streptomyces coelicolor SP2 harboring rpsL K88E mutant gene and inserted glycine at position 92 of the gene after 48 hrs; format: functional
[2] = tested on: Streptomyces coelicolor; test: Antimicrobial activity against Streptomyces coelicolor 1147 after 48 hrs; format: functional
[3] = tested on: Streptomyces coelicolor; test: Antimicrobial activity against paromomycin-resistant Streptomyces coelicolor SP1 harboring rpsL A262G and C271T mutant gene after 48 hrs; format: functional
[4] = tested on: Streptomyces coelicolor; test: Antimicrobial activity against paromomycin-resistant Streptomyces coelicolor KO-347 harboring rpsl P91S mutant gene after 48 hrs; format: functional
[5] = tested on: Streptomyces coelicolor; test: Antimicrobial activity against paromomycin-resistant Streptomyces coelicolor 92G harboring rpsL gene with inserted glycine at position 92 after 48 hrs; format: functional
[6] = tested on: Streptomyces coelicolor; test: Antimicrobial activity against streptomycin-resistant Streptomyces coelicolor KO-178 harboring rpsL K88E mutant gene after 48 hrs; format: functional
[7] = target: T1, Small ribosomal subunit protein uS12 (Streptomyces coelicolor (strain ATCC BAA-471 / A3(2) / M145)) (UniProt P0A4A3); test: Binding affinity to Streptomyces coelicolor 1147 30S ribosomal protein S12 assessed as inhibition of protein synthesis at 0.2 ug/ml by fluorescence assay
T1 sequence (whole entry): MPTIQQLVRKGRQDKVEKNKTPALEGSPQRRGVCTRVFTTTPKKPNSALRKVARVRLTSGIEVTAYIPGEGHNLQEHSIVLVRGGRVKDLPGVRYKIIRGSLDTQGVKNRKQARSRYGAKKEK

[8] = tested on: Streptomyces coelicolor; test: Binding affinity to Streptomyces coelicolor KO-347 30S ribosomal ptotein S12 GI92 mutant assessed as inhibition of protein synthesis at 0.2 ug/ml by fluorescence assay
[9] = tested on: Streptomyces coelicolor; test: Binding affinity to Streptomyces coelicolor KO-178 30S ribosomal protein S12 K88E mutant assessed as inhibition of protein synthesis at 0.2 ug/ml by fluorescence assay
[10] = Streptomyces coelicolor, 1147, 48 h

Compound | MIC ([1]; SP2, 48 h) | MIC [2, 10] | MIC ([3]; SP1, 48 h) | MIC ([4]; KO-347, 48 h) | MIC [5] | MIC ([6]; KO-178, 48 h) | inhibition [7] | inhibition [8] | inhibition [9] | MIC [1] | MIC [2] | MIC [3] | MIC [4] | MIC [6]
CN(C)[C@@H]1C(O)=C(C(N)=O)C(=O)[C@@]2(O)C(O)=C3C(=O)c4c(O)cccc4[C@@](C)(O)[C@H]3C[C@@H]12 [TETRACYCLINE] | 3 µg/mL (≈ 6.75 µM) | 10 µg/mL (≈ 22.5 µM) | 3 µg/mL (≈ 6.75 µM) | 5 µg/mL (≈ 11.3 µM) | 10 µg/mL (≈ 22.5 µM) | 10 µg/mL (≈ 22.5 µM) | – | – | – | – | – | – | – | –
CCC[C@@H]1C[C@@H](C(=O)N[C@@H]([C@H]2O[C@H](SC)[C@H](O)[C@@H](O)[C@H]2O)[C@@H](C)O)N(C)C1 [LINCOMYCIN] | 10 µg/mL (≈ 24.6 µM) | 50 µg/mL (≈ 123 µM) | 40 µg/mL (≈ 98.4 µM) | 50 µg/mL (≈ 123 µM) | 20 µg/mL (≈ 49.2 µM) | 40 µg/mL (≈ 98.4 µM) | – | – | – | – | – | – | – | –
NC[C@@H]1O[C@H](O[C@H]2[C@@H](O)[C@H](O[C@@H]3[C@@H](O)[C@H](N)C[C@H](N)[C@H]3O[C@H]3O[C@H](CN)[C@@H](O)[C@H](O)[C@H]3N)O[C@@H]2CO)[C@H](N)[C@@H](O)[C@@H]1O [FRAMYCETIN] | 0.2 µg/mL (≈ 0.325 µM) | 0.3 µg/mL (≈ 0.488 µM) | 0.2 µg/mL (≈ 0.325 µM) | 0.5 µg/mL (≈ 0.813 µM) | 0.5 µg/mL (≈ 0.813 µM) | 0.8 µg/mL (≈ 1.3 µM) | – | – | – | – | – | – | – | –
NC[C@H]1O[C@H](O[C@H]2[C@H](O)[C@@H](O[C@H]3O[C@H](CO)[C@@H](O)[C@H](N)[C@H]3O)[C@H](N)C[C@@H]2N)[C@H](O)[C@@H](O)[C@@H]1O [KANAMYCIN] | 0.5 µg/mL (≈ 1.03 µM) | 0.8 µg/mL (≈ 1.65 µM) | 0.5 µg/mL (≈ 1.03 µM) | 0.5 µg/mL (≈ 1.03 µM) | 1 µg/mL (≈ 2.06 µM) | 0.8 µg/mL (≈ 1.65 µM) | – | – | – | – | – | – | – | –
NC[C@@H]1O[C@H](O[C@H]2[C@@H](O)[C@H](O[C@@H]3[C@@H](O)[C@H](N)C[C@H](N)[C@H]3O[C@H]3O[C@H](CO)[C@@H](O)[C@H](O)[C@H]3N)O[C@@H]2CO)[C@H](N)[C@@H](O)[C@@H]1O [PAROMOMYCIN] | 3 µg/mL (≈ 4.87 µM) | 0.1 µg/mL (≈ 0.162 µM) | 2 µg/mL (≈ 3.25 µM) | 0.8 µg/mL (≈ 1.3 µM) | 2 µg/mL (≈ 3.25 µM) | 0.3 µg/mL (≈ 0.487 µM) | 80% | inactive | > 80% | – | – | – | – | –
CN[C@@H]1[C@H](O[C@H]2[C@H](O[C@H]3[C@H](O)[C@@H](O)[C@H](N=C(N)N)[C@@H](O)[C@@H]3N=C(N)N)O[C@@H](C)[C@]2(O)C=O)O[C@@H](CO)[C@H](O)[C@H]1O [STREPTOMYCIN] | > 200 µg/mL | 1 µg/mL (≈ 1.72 µM) | 200 µg/mL (≈ 344 µM) | 20 µg/mL (≈ 34.4 µM) | 20 µg/mL (≈ 34.4 µM) | 100 µg/mL (≈ 172 µM) | – | – | – | – | – | – | – | –
GENTAMICIN | – | – | – | – | 0.5 µg/mL | – | – | – | – | 0.5 µg/mL | 0.1 µg/mL | 0.5 µg/mL | 0.5 µg/mL | 0.1 µg/mL
CN[C@@H]1[C@@H](O)[C@@H](O[C@@H]2[C@@H](O)[C@H](O[C@H]3O[C@H]([C@@H](C)O)[C@@H](O)[C@H](O)[C@H]3N)[C@@H](N)C[C@H]2N)OC[C@]1(C)O [GENETICIN] | 0.5 µg/mL (≈ 1.01 µM) | 0.3 µg/mL (≈ 0.604 µM) | 0.5 µg/mL (≈ 1.01 µM) | 0.3 µg/mL (≈ 0.604 µM) | 1 µg/mL (≈ 2.01 µM) | 0.3 µg/mL (≈ 0.604 µM) | – | – | – | – | – | – | – | –
CC(=O)O[C@H]1C[C@@]2(C)[C@@H](C[C@@H](O)[C@H]3[C@@]4(C)CC[C@@H](O)[C@@H](C)[C@@H]4CC[C@@]32C)/C1=C(\CCC=C(C)C)C(=O)O [FUSIDIC ACID] | 20 µg/mL (≈ 38.7 µM) | 50 µg/mL (≈ 96.8 µM) | 20 µg/mL (≈ 38.7 µM) | 50 µg/mL (≈ 96.8 µM) | 50 µg/mL (≈ 96.8 µM) | 50 µg/mL (≈ 96.8 µM) | – | – | – | – | – | – | – | –
